According to paper PMC10449848, “Structural basis of lipid-droplet localization of 17-beta-hydroxysteroid dehydrogenase 13” (Nature Communications, 2023):
Several values for one entry are separate records, joined by “and”; a condition that tells them apart may be missing. Equal values may be shown once.

How the values were obtained:
human HSD17B11 = target: T1, human HSD17B11 (Homo sapiens, UniProt Q8NBQ5); test: Thermal shift assay (static light scattering, Tagg), human HSD17B11; type: binding; details: Fig. 6d, 500 μM NAD+
T1 construct: human HSD17B11 (residues 2-300, NP_057329.3); 10x His (N); TEV protease site (N); made in house; host or cells: Sf9 (baculovirus)
T1 sequence (Q8NBQ5 2-300): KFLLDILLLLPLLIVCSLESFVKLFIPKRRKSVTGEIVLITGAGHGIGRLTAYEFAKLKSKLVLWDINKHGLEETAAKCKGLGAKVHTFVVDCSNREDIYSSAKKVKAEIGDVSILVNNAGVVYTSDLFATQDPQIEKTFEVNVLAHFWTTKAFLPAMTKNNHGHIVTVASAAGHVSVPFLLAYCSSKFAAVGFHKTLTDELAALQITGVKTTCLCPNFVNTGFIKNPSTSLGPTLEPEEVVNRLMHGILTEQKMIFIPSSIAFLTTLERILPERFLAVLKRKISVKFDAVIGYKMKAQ
Excerpt: Because of the low enzymatic activities of dog wild-type HSD17B13 (Fig. 6a) and HSD17B11 with β-estradiol, it was difficult to measure compound inhibition of these proteins in a biochemical assay and we instead utilized direct binding methods to compare compounds interaction with different proteins. To understand ligand binding, we tested several approaches such as surface plasmon resonance and isothermal calorimetry. Like many membrane/detergent-associated proteins, however, these methods were not amenable for HSD17B13. We next turned to thermal shift assays (TSA) for comparing ligand binding affinities. TSA measures the changes in the thermal denaturation temperature of a protein under different conditions such as the presence compound, changes in buffer conditions, or sequence mutations. There are various readouts including intrinsic fluorescence or light scattering signals. We chose the static light scattering methods to detect the temperatures at which our proteins start to aggregate (Tagg), which are more suitable for membrane proteins that require detergent micelles for stability. Given that in theory[51] and in practice Tagg continues to increase with concentration of ligands far above their IC50s, we used high cofactor and inhibitor concentrations in the TSA experiments to maximize the ligand binding signal.
(§1) TSA studies were run on the UNit instrument (Unchained Labs, CA, USA). Experiments were run in either 25 mM sodium phosphate pH 7, 150 mM NaCl, 10% glycerol, 1 mM TCEP, 0.05% DDM, + different cofactors (NAD^+, NADH, NADP, NADPH; MilliporeSigma) or 25 mM HEPES pH 7.2, 300 mM NaCl, 0.5 mM TCEP, 0.05% DDM, 10% glycerol, ±500 µM NAD^+, and ±100 µM compound 1 (from 2 mM DMSO stock) or DMSO or 50 mM Hepes pH 7.5, 300 mM NaCl, 0.5 mM TCEP, 0.05% DDM, 500 µM NAD^+, ± 50 µM compounds (from 2 mM stock) or DMSO. Protein aggregation was measured by static light scattering at 266 and 473 nm with a 1 °C/sec ramp rate from 20-80 °C. The data was processed using the UNcle software (Unchained Labs, CA, USA), and temperatures at which the protein started aggregation were recorded as Tagg. Reported Tagg and analysis were based on measurements at 266 nm unless otherwise indicated. The protein concentration used was 10.4 μM.

human HSD17B13 = target: T2, human HSD17B13 (Homo sapiens, UniProt Q7Z5P4); test: Thermal shift assay (static light scattering, Tagg), human HSD17B13; type: binding; details: Fig. 6c; 500 μM NAD+ alone, no compound
T2 construct: human HSD17B13 (residues 2-300, NP_835236.2); 10x His (N); TEV protease site (N); made in house; host or cells: Sf9 (baculovirus)
T2 sequence (Q7Z5P4 2-300): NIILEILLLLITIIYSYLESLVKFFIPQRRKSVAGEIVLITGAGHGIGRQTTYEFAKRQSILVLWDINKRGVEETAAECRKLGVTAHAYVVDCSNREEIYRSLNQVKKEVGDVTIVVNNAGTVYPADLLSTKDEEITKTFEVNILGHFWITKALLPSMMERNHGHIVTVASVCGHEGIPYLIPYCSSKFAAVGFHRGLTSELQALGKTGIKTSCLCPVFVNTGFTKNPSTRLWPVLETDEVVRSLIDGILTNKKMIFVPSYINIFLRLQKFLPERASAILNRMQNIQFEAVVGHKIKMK
Excerpt: To understand ligand binding, we tested several approaches such as surface plasmon resonance and isothermal calorimetry. […] We next turned to thermal shift assays (TSA) for comparing ligand binding affinities. TSA measures the changes in the thermal denaturation temperature of a protein under different conditions such as the presence compound, changes in buffer conditions, or sequence mutations. There are various readouts including intrinsic fluorescence or light scattering signals. We chose the static light scattering methods to detect the temperatures at which our proteins start to aggregate (Tagg), which are more suitable for membrane proteins that require detergent micelles for stability.
as §1, with “indicated.” for “indicated. The protein concentration used was 10.4 μM.”

[1] = target: human mutant HSD17B13 (Q60K/I62R/R71H/E161K) (human) (UniProt Q7Z5P4); test: crystal structure; human mutant HSD17B13 with 1 mM NAD+, 1 mM compound 2 and 0.5% β-octyl-glucoside; 25% PEG3350, 0.1 M Bis-Tris pH 5.5, 0.2 M Li2SO4; room temperature
[2] = target: the molecule itself; test: crystal structure; dog HSD17B13 at 12 mg/ml with 1 mM NAD+, 1 mM compound 1 and 0.125% β-octyl-glucoside; 30% PEG3350, 0.2 M ammonium chloride; room temperature; apo crystals by soaking with buffer containing NAD+ only

Q: Which “effect on protein stability in TSA” value (human HSD17B11) does the source give for `Cc1ccc(S(=O)(=O)c2cc(C)cc(S(=O)(=O)Nc3ccc(C(=O)O)cc3)c2C)cc1` [Compound 2] here?
A: neither 1 nor 2 showed an effect on protein stability

Q: And the Tagg (human HSD17B11; 50 µM compound)?
A: 40.37 °C and 38.02 °C and 40.65 °C and 41.03 °C and 39.22 °C and 40.82 °C and 39.77 °C and 38.1 °C

Q: Which “Tagg, individual measurements” value (human HSD17B13) does the source give for `NC(=O)c1ccc[n+]([C@@H]2O[C@H](COP(=O)([O-])OP(=O)(O)OC[C@H]3O[C@@H](n4cnc5c(N)ncnc54)[C@H](O)[C@@H]3O)[C@@H](O)[C@H]2O)c1` [NAD, nicotinamide adenine dinucleotide] here?
A: 43.6 °C (2×) and 38.9 °C and 40.5 °C and 42 °C and 41.7 °C (2×) and 41 °C

Q: “human mutant HSD17B13 (Q60K/I62R/R71H/E161K) (from UniProt Q7Z5P4-1 20-300) (enzyme)” was tested. Which stoichiometry N [1] did it give?
A: 2

B1: dog wild-type HSD17B13 (hydroxysteroid 17-beta-dehydrogenase 13) (enzyme, UniProt A0A8C0PP93 1-300, looked up)
chain: MNIILDLLLLLLTIIYSYLEALVKVFFPRKRKSVAGEIVLITGAGHGIGRWTAYEFAKQKSRLVLWDINKHGVEETAAECRKLGATVHTFVVDCGNREDIYNSVKQVKKEVGDVTILVNNAGTVYPADLLSTKDEEITKTFEINILGHFWITKALLPSMIKRNHGHIVTVASVCGHGVIPYLIPYCSSKFAAVGFHRALTLELQTLGITGIKTSCLCPVFVNTGFTKNPSTRLWPILETDTVARSLIDGILTNKKMIFVPSYYNIYLILDKFLPERALAAINHLQNIQFEAVIGHKTRMK
notes: HSD17B13, dog, AA1-300 of XP_038300006.1; Crystallised with NAD+ and compound 1; the apo (NAD+ only) crystals were made by soaking compound 1 out; It is held in two of the entries PDB 8G84, 8G89, 8G93 and 8G9V; also called Dog WT; dog WT HSD17B13; source: Sf9 (baculovirus), solubilised from membranes with C12E8, purified (NiNTA, SEC)
Q: How did the “stoichiometry N” value [2] turn out when B1 was run?
A: 2

B2: dog mutant HSD17B13 (G177E/V178G/T205A/I293V) (enzyme, UniProt A0A8C0PP93 1-300, looked up)
chain: MNIILDLLLLLLTIIYSYLEALVKVFFPRKRKSVAGEIVLITGAGHGIGRWTAYEFAKQKSRLVLWDINKHGVEETAAECRKLGATVHTFVVDCGNREDIYNSVKQVKKEVGDVTILVNNAGTVYPADLLSTKDEEITKTFEINILGHFWITKALLPSMIKRNHGHIVTVASVCGHEGIPYLIPYCSSKFAAVGFHRALTLELQALGITGIKTSCLCPVFVNTGFTKNPSTRLWPILETDTVARSLIDGILTNKKMIFVPSYYNIYLILDKFLPERALAAINHLQNIQFEAVVGHKTRMK
notes: HSD17B13, dog, AA1-300 of XP_038300006.1, with four residues at the compound 1 site changed to the human ones; It is held in one of the entries PDB 8G84, 8G89, 8G93 and 8G9V; also called dog quadruple mutant; mutated dog HSD17B13; source: Sf9 (baculovirus), solubilised from membranes with C12E8, purified (NiNTA, SEC)
Q: With B2 as the molecule, how does the “stoichiometry N” value [2] read?
A: 2
